{"source": "patent US10653709B2", "about": "“Methods of folding a graft copolymer with dual anticancer drugs and related applications” (priority 2014, dated 2020)", "format_in_all_cases": "cell-based", "key": {"A549": {"test_system": "A549", "experiment": "In vitro cytotoxicity, MTT assay", "details": "Homo sapiens; A549 (lung), 48 hours, mean ± SD", "experimental": "(§1) In vitro cytotoxicity of CPT, Dox, MB-20 and MB-20/Dox was measured using the 3-(4,5-dimethylthiazol-2-yl)-2,5-diphenyltetrazolium bromide (MTT) assay. Briefly, cancer cells were seeded in a 96-well plate at a density of 5,000 cells per well. After 12 h incubation, a series of drug dilution (1 nM to 300 μM) were added into wells. After 48 h of drug treatment, the cytotoxicity was measured using the MTT assay. To enhance the assay sensitivity, Sorensen's glycine buffer (0.1 M glycine, 0.1 M NaCl adjust pH to 10.5 with 0.1 N NaOH) was added into wells before absorbance assay. See Plumb et al., Cancer Res., 49, 4435-4440 (1989); Tai et al., Mol. Pharm., 8, 901-912 (2011); and Tai et al., Mol. Pharm., 10, 477-487 (2013). The absorbance at wavelength of 570 nm was measured using a microplate reader (Infinite® M200 PRO, Tecan, Mannedorf, Switzerland). The half-maximal inhibitory concentration (IC50) was calculated by fitting a concentration—absorbance curve using the Graphpad Prism 5 software (Graphpad Software Inc., San Diego, Calif., United States of America)."}, "HeLa": {"test_system": "HeLa", "experiment": "In vitro cytotoxicity, MTT assay", "details": "Homo sapiens; HeLa (cervix), 48 hours, mean ± SD", "experimental": "as §1"}, "Hep G2": {"test_system": "Hep G2", "experiment": "In vitro cytotoxicity, MTT assay", "details": "Homo sapiens, HepG2; Hep G2 (liver), 48 hours, mean ± SD", "experimental": "as §1"}, "MCF-7": {"test_system": "MCF-7", "experiment": "In vitro cytotoxicity, MTT assay", "details": "Homo sapiens, MCF7; MCF-7 (breast), 48 hours, mean ± SD", "experimental": "as §1"}, "MDA-MB-231": {"test_system": "MDA-MB-231", "experiment": "In vitro cytotoxicity, MTT assay", "details": "Homo sapiens; MDA-MB-231 (breast), 48 hours, mean ± SD", "experimental": "as §1"}, "MDA-MB-468": {"test_system": "MDA-MB-468", "experiment": "In vitro cytotoxicity, MTT assay", "details": "Homo sapiens; MDA-MB-468 (breast), 48 hours, mean ± SD", "experimental": "as §1"}, "NCI-H441": {"test_system": "NCI-H441", "experiment": "In vitro cytotoxicity, MTT assay", "details": "Homo sapiens; NCI-H441 (lung), 48 hours, mean ± SD", "experimental": "as §1"}, "PC-3": {"test_system": "PC-3", "experiment": "In vitro cytotoxicity, MTT assay", "details": "Homo sapiens; PC-3 (prostate), 48 hours, mean ± SD", "experimental": "as §1"}, "HL-60": {"test_system": "HL-60", "experiment": "In vitro cytotoxicity, CellTiter-Glo Luminescent Cell Viability Assay", "details": "Homo sapiens, HL-60 (leukemia), suspension cells, mean ± SD"}, "[1]": {"test_system": "panel of 9 cancer cell lines", "experiment": "In vitro cytotoxicity across the panel", "details": "range over the panel, 48 hours; read-out: IC50s across cancer cell lines", "experimental": "as §1"}}, "data": [{"smiles": "CC[C@@]1(O)C(=O)OCc2c1cc1n(c2=O)Cc2cc3ccccc3nc2-1", "note": "[CPT, camptothecin]", "values": [{"measurement": "IC50", "setting": "A549", "result": 300, "unit": "nM"}, {"measurement": "IC50", "setting": "HeLa", "result": "3300 ± 1500", "unit": "nM"}, {"measurement": "IC50", "setting": "Hep G2", "result": "600 ± 1400", "unit": "nM"}, {"measurement": "IC50", "setting": "MCF-7", "result": "1200 ± 1000", "unit": "nM"}, {"measurement": "IC50", "setting": "MDA-MB-231", "result": "600 ± 500", "unit": "nM"}, {"measurement": "IC50", "setting": "MDA-MB-468", "result": "90 ± 90", "unit": "nM"}, {"measurement": "IC50", "setting": "NCI-H441", "result": "100 ± 200", "unit": "nM"}, {"measurement": "IC50", "setting": "PC-3", "result": 20, "unit": "nM"}, {"measurement": "IC50", "setting": "HL-60", "result": "400 ± 1000", "unit": "nM"}, {"measurement": "IC50", "setting": "[1]", "result": "20 to 3300", "unit": "nM"}]}, {"smiles": "COc1cccc2c1C(=O)c1c(O)c3c(c(O)c1C2=O)C[C@@](O)(C(=O)CO)C[C@@H]3O[C@H]1C[C@H](N)[C@H](O)[C@H](C)O1", "note": "[Dox, doxorubicin]", "values": [{"measurement": "IC50", "setting": "A549", "result": "500 ± 800", "unit": "nM"}, {"measurement": "IC50", "setting": "HeLa", "result": "1000 ± 1700", "unit": "nM"}, {"measurement": "IC50", "setting": "Hep G2", "result": "500 ± 1400", "unit": "nM"}, {"measurement": "IC50", "setting": "MCF-7", "result": 300, "unit": "nM"}, {"measurement": "IC50", "setting": "MDA-MB-231", "result": 100, "unit": "nM"}, {"measurement": "IC50", "setting": "MDA-MB-468", "result": 100, "unit": "nM"}, {"measurement": "IC50", "setting": "NCI-H441", "result": "200 ± 400", "unit": "nM"}, {"measurement": "IC50", "setting": "PC-3", "result": "200 ± 400", "unit": "nM"}, {"measurement": "IC50", "setting": "HL-60", "result": 300, "unit": "nM"}]}]}
